Here are results for one compound from article PMC10517971, “An inverse agonist of orphan receptor GPR61 acts by a G protein-competitive allosteric mechanism” (Nature Communications, 2023).

One assay addresses Human PDE10A1 (Homo sapiens, UniProt Q9Y233). As to the kind of experiment: Phosphodiesterase Assay (SPA). Type of assay: biochemical.
Another assay addresses Acetylcholinesterase (Homo sapiens, UniProt P22303). The experiment in a line: Acetylcholinesterase Assay (Ellman). The format is biochemical. As to the method:
67 black 384 well flat -bottomed polystyrene plates. Compound/vehicle or standard (5 µL) were added
68 to wells followed by His -tagged BRD4 (10 µL; 40 nM final concentration in assay). Following a
69 15 min incubation at room temperature a propri etary Cy5 -labelled probe molecule (5 µL; 2 nM
70 final concentration in assay) was added. Following, an additional 16 h incubation at room
71 temperature fluorescence polarization measurements were made using an Envision plate reader
72 (Perkin Elmer, Waltham, MA, USA) and mP values were used for analysis .
73 Acetylcholinesterase As say
74 The assay described is based on Ellmans method, in which thiocholine produced by the action of
75 acetylcholinesterase forms a yellow color with 5,5'- dithiobis(2- nitrobenzoic acid). The intensity
76 of the product color, measured at 405 nm, is proportionate to the enzyme activity in the sample.
77 To each well of a clear 96 polystyrene plate 90 µL enzyme solution (1mU/well) or phosphate
78 buffered saline (PBS) and 10 µL compound/standard or vehicle was added. The plate was
79 incubated at room temperature for 15 min. Subsequently 100 µL of substrate/detection reagent
80 (800 µM acetylthiocholine/1mM 5,5'- dithiobis(2- nitrobenzoic acid)) was added and the plate was
81 read at the 20 min time point.
83 Human embryonic kidney (HEK) cells stably transfected with a doxycycline inducible plasmid […]
A general note: DTNB colorimetry detects thiols as they appear.

The next assay deals with hERG (Homo sapiens, UniProt Q12809). As to the kind of experiment: hERG ion channel profiling, Qube384 automated patch clamp (standard and extended protocol). Type of assay: cell-based. An excerpt:
105 hERG, Nav1.5 and Cav1.2 Ion Channel Profiling
106 Ionic curr ents wer e evalu ated in the whole-cell con figuration using the Qube384 automated planar
107 patch clamp platform (Sophion Bioscience A/S, Ballerup, Denmark). QChip 384X plates,
108 containing 10 patch clamp holes per well, were used to maximize success rate, which was routinely
110 For hERG experiments, the external solution was composed of (in mM): 132 NaCl, 4 KCl, 1.8
111 CaCl2, 1.2 MgCl2, 10 HEPES, 11 Glucose, pH 7.4, 305 mOsM. […]
121 The hERG current was elicited from a holding potential of - 80 mV by a voltage step to +40 mV
122 for 500 ms, followed by a repolarizing ramp to - 80 mV at - 0.6 mV/ms. This pattern was repeated
123 at a rate of 0.05 Hz. Peak hERG current was measured during the ramp. […]
126 Nav1.5 current, from a holding potential of - 80 mV, a 200 ms prepulse to - 120 mV was used to
127 homogenize channel inactivation, followed by a 40 ms step to a test potential of - 15 mV.
128 Membrane potential was further depolarized to +40 mV for 200 ms to completely inactivate the
129 peak Nav1.5 current, followed by a ramp from +40 mV to - 80 mV (-1.2 mV/ms). This voltage
130 pattern was repeated at 0.1 Hz, with peak Nav1.5 defined as the maximum current during the step
131 to - 15 mV. All studies were conducted at 23° C.
132 Compounds were dissol ved and initially diluted in dimethyl sulfoxide (DMSO), with a final
133 dilution in external solution to generate final working concent rations. The final DMSO
134 concentration in all experiments was 0.33% (v/v).
135 For all protocols three vehicle periods each lasting 5 minutes were applied to establish a stable
136 baseline. For the standard protocol this was followed by the addition of increasing concentrations
137 of test compound, with each exposure lasting 5 minutes. For the “extended” protocol following
138 the three- vehi cle additional each well subsequentl y received a single concentration of compound.
139 This application was repeated three times for each well, via a flowthrough addition where the
140 solution was replaced wi th the same compound concentration with each addition. Each exposure
142 Patch clamp data were analyzed using Assay Software 6.4.72 (Sophion Bioscience A/S, Ballerup,
143 Denmark). Current amplitudes were determined by averaging the last 4 currents under each test
144 condition. The percentage inhibition of each compound was determined by taking the ratio of
145 current amplitude measured in the presence of various concentrations of the test compound
146 (ICompound) versus the vehicle control current (IVehicle):
148 A dose-response curve was generat ed and fit to the Hill equation by the Sophion Analyzer software
149 to determine an IC50 value for each compound. The minimum and the slope of the fit were free […]

In a further assay the target is Human PDE2A1 (Homo sapiens, UniProt O00408). As to the kind of experiment: Phosphodiesterase Assay (SPA). Type of assay: biochemical.

Read-outs that look alike come from different tables or passages of the source.

Broadly, the IC50 is the point on the concentration scale where inhibition reaches its midpoint.

hERG, sequence (Q12809 whole entry): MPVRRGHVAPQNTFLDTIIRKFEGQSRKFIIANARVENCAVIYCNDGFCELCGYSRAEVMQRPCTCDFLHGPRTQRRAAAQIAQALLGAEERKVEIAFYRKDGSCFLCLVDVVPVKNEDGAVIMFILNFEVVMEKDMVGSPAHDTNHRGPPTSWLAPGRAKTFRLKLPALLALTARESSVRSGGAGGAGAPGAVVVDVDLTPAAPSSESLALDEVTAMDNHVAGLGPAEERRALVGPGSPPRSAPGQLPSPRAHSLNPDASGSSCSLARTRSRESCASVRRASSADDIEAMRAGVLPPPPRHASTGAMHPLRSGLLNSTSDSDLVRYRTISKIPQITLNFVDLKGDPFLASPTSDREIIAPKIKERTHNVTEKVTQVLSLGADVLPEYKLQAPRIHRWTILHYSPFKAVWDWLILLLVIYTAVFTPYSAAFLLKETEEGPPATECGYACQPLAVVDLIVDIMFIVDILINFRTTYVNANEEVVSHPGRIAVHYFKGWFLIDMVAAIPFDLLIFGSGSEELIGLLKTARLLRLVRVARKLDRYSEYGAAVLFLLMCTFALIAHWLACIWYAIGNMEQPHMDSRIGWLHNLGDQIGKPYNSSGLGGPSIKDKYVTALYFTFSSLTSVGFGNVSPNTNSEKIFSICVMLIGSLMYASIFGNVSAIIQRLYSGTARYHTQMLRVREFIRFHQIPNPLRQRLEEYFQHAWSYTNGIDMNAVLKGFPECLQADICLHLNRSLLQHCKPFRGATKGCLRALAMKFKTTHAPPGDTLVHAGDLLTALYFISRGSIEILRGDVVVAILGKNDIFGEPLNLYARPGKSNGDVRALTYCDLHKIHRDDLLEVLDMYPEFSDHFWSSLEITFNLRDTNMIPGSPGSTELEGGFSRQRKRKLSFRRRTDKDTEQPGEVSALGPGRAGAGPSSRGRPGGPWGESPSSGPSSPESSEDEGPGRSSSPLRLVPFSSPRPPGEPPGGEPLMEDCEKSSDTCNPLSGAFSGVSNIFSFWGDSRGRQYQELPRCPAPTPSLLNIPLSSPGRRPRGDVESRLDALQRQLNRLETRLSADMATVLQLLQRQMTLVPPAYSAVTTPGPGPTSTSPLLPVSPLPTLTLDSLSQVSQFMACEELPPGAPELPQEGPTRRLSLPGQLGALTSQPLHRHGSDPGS
Human PDE2A1, sequence (O00408 1-920 isoform O00408-2): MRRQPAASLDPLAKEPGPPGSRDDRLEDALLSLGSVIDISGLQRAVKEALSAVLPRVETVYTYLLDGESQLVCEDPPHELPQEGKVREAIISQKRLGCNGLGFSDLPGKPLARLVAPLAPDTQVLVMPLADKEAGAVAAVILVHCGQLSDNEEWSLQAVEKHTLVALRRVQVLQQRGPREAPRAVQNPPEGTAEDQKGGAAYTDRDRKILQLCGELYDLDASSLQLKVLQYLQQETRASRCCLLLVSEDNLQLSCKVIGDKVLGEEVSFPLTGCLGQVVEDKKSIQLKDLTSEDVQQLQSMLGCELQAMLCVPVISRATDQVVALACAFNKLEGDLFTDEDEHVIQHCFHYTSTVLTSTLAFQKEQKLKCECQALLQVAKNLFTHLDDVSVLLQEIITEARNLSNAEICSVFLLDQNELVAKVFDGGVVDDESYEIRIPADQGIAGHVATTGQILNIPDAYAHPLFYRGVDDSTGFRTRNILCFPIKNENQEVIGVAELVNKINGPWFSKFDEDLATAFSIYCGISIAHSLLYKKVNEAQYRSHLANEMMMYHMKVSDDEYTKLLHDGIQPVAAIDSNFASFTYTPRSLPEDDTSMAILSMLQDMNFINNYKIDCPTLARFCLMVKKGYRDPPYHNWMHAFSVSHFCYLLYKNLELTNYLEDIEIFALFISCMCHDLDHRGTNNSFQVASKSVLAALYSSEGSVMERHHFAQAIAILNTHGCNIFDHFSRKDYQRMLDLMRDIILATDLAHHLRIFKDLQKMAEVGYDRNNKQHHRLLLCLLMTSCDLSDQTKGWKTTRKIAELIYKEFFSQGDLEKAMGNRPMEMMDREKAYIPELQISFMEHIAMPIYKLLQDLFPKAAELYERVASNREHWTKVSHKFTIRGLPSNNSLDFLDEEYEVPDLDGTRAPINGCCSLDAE
Acetylcholinesterase, sequence (P22303 32-614, species assumed): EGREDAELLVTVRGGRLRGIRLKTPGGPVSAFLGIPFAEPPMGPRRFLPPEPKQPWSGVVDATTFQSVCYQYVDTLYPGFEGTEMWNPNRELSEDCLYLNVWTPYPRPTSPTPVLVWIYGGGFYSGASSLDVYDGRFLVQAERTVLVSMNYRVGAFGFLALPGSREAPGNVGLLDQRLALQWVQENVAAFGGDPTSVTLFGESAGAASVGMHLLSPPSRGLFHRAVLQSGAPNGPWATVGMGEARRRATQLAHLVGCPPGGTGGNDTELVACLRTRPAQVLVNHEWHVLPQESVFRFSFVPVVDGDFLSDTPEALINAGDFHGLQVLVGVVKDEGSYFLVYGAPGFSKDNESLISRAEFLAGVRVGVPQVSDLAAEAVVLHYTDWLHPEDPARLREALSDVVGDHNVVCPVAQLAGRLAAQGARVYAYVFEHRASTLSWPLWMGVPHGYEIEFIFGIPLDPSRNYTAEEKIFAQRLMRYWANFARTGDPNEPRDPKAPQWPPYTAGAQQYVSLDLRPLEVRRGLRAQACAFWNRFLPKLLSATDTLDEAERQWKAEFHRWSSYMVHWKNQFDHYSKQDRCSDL
Human PDE10A1, sequence (Q9Y233 1-779 isoform Q9Y233-1): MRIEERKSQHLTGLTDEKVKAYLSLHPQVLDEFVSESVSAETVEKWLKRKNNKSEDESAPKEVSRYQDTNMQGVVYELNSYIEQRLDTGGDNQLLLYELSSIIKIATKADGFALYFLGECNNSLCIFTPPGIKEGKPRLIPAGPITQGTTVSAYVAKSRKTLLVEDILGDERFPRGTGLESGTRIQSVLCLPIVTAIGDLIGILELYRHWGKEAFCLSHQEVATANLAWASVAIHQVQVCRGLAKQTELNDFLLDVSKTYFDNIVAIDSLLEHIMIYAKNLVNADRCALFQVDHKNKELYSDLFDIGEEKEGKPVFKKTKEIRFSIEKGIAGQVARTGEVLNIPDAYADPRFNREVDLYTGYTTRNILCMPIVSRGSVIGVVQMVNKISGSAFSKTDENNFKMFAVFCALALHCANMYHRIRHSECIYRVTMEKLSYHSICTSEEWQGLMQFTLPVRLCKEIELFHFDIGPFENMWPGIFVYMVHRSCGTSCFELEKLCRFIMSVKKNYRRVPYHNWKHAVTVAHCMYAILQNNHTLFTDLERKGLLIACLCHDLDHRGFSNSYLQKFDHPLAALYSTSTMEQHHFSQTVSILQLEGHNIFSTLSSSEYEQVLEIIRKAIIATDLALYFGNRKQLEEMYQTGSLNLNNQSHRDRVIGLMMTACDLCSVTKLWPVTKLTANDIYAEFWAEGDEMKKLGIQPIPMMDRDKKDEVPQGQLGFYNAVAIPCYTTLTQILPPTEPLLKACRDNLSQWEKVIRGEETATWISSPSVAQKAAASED

Regarding `CCOc1cc(C)nc(N(CCOC)S(=O)(=O)c2ccc(NCc3c(F)cncc3F)nc2OC)n1` [Compound 1], the half-inhibitory concentration (IC50) was over 40 µM on Human PDE10A1; over 50 µM on Acetylcholinesterase; 36500 nM at hERG (extended protocol, 1st period, read-out: Ion Channel Extended Protocol IC50 (nM), Period 1st); 28000 nM at hERG (extended protocol, 2nd period, read-out: Ion Channel Extended Protocol IC50 (nM), Period 2nd); 18700 nM on hERG (extended protocol, 3rd period, read-out: Ion Channel Extended Protocol IC50 (nM), Period 3rd); 52900 nM at hERG (standard protocol, read-out: Patch IC50). At Human PDE2A1, this compound returned an IC50 of over 200 µM.
